Assay [1] deals with MDA-MB-231 xenograft tumors. Briefly: Multiphoton intravital imaging of motile tumor cells. It is filed as in vivo, mouse. As for the experimental part: Intravital imaging. Intravital multiphoton imaging was performed as described previously (Oudin M J, et al. Tumor cell-driven extracellular matrix remodeling enables haptotaxis during metastatic progression. Cancer Discov. 2016; Available from: www.ncbi.nlm.nih.gov/pubmed/26811325) using a 25×1.05 NA water immersion objective with correction lens. After exposing the tumor with a skin flap surgery, 30 minute movies were captured. The number of motile cells in each field of view were count in ten 30 minute time-lapse movies using ImageJ. Motile cells were cells who show any displacement of the nucleus and cell protrusion activity. Data were pooled from 2-4 mice per tumor group, with 4-10 fields imaged per mouse.
(§1) MENA and MENA^INV drive increased cell motility and metastasis during tumor progression. Therefore, whether MENA isoform expression impacts cell migration and dissemination after paclitaxel treatment was examined.

For assay [2], the system named is MDA-MB-231 xenograft tumors. The experiment in a line: Xenograft tumor growth in NOD-SCID mice with chemotherapy treatment. As to conditions: three doses Taxol/paclitaxel 10 mg/kg or two doses Doxorubicin 5 mg/kg; for growth of control tumors compared to vehicle: GFP (Control) tumors. Type of assay: in vivo, mouse. The procedure: Mena or Mena^INV expression blocks Taxol efficacy on tumors in treated animals. Mice with xenograft tumors were generated by injection of MDA-MB-231 cells expressing GFP (Control), GFP-Mena (Mena) or GFP-Mena^INV (Mena^INV) into the mammary fat pads of NOD-SCID mice. […] Tumor size was measured before and after treatment. […] These in vivo findings are consistent with the results obtained in the in vitro data, and indicate that Men/Mena^INV promotes resistance to Taxol as judged by tumor growth.
Xenograft tumor generation and in vivo chemotherapy treatment. All animal experiments were approved by the MIT Division of Comparative Medicine. 2 million MDA-MB-231 cells expressing different MENA isoforms (in PBS and 20% collagen I) were injected into the 4th right mammary fat pad of six week-old female NOD-SCID mice (Taconic). When the tumors reached 1 cm in diameter, mice were treated every five days with either three doses of paclitaxel at 10 mg/kg in 1% DMSO, 3% PEG (MW 400), 1% Tween 80 in PBS by intra-peritoneal injection. In parallel, mice were treated with only in 1% DMSO, 3% PEG (MW 400), 1% Tween 80 in PBS as a vehicle control. One day after the last injection, tumors were measured and mice were use for intravital imaging and then sacrificed. Their tumors and lungs were fixed in 10% formalin overnight, their bone marrow were collected using PBS and cultured in DMEM with 10% fetal bovine serum. The number of tumor cell colonies in cultured bone morrow was counted 1 month after collection. The number of metastasis in each lobe of the lung were counted from lung H&E stained sections visualized by light microscopy and counted by two blinded individuals. Each tumor group contained 3-5 mice.
MENA isoform expression is associated with increased tumor growth in vivo during paclitaxel treatment. Whether MENA-associated paclitaxel resistance could also be observed in vivo was examined. Xenograft tumors were generated by injecting MDA-MB-231 cells expressing MENA isoforms into the mammary fat pads of NOD-SCID mice. Mice were treated with paclitaxel once tumors reached 1 cm in diameter (FIG. 30A).

Assay [3] concerns MDA-MB-231 cells. The experiment in a line: Cell viability assay (Prestoblue) in MDA-MB-231 cells expressing GFP, GFP-Mena or GFP-Mena^INV. As to conditions: 72 h of treatment with Taxol at 100 nM, 1 μm or 10 μM.
Method: Cell viability assays were performed in a 96-well plate. 5,000 cells were plated per well and treated with drug 24 hours later. Cell viability was assayed 72 hours later using the PrestoBlue Cell Viability Reagent (Life Technologies), according to manufacturer's protocol. Fluorescence was measured and normalized to cells exposed to vehicle. The activity area was calculated from doseresponse plots using Matlab. All measurements were repeated in triplicate.
Assay [4] concerns MDA-MB-231 cells. Briefly: In vitro imaging of cell velocity on collagen. Type of assay: cell-based, human. As to conditions: 231-Control, 231-MENA, 231-MENA^INV; paclitaxel 1, 10 or 100 nM. The procedure:
(§2) In vitro imaging. Glass bottom dishes were coated with Co11agen at 0.1 mg/mL diluted in PBS for 1 hour at 37° C. Cells expressing different MENA isoform were treated with paclitaxel at 1, 10 or 100 nM or vehicle and immediately plated on the glass bottom dishes. 30 minutes later, cells were imaged overnight, with one image acquired every 10 minutes for 16 hours on a Nikon spinning disk with a 20× objective and an Andor/NeoZyla camera. Individual cells were manually tracked using ImageJ and Manual Tracking plug-in. Data were analyzed using the chemotaxis tool developed by IBIDI. For analysis of time spent in cell division, the time between when the mother cell first rounds up, to when both daughter cells have spread out on substrate was measured. The percentage of successful cell divisions was quantified by counting the number of cell divisions that lead to two surviving daughter cells. Data are pooled from at least 50 cells tracked in three independent experiments.
as §1

The test system of assay [5] is MDA-MB-231 cells. The experiment in a line: Time-lapse microscopy of cell division. As to conditions: for increase in time spent in cell division: 10 nM paclitaxel vs vehicle. Type of assay: cell-based, human. As for the experimental part:
as §2
One of the key steps in paclitaxel-induced cell death is cell arrest in the G2/M phases of the cell cycle. […] Time-lapse microscopy was performed to study the cell division phenotypes in more detail, and imaged cells expressing MENA isoforms while adherent on collagen (FIGS. 35D, 35E, 35F).

In a further assay the test system is microtubules (MT). Briefly: MT length image analysis. It is filed as cell-based, human. As to conditions: 231-MENA^INV cells, 10 nM paclitaxel 24 hours.
The subject of a further assay is Mena, Mena^INV. The experiment in a line: Mena and Mena^INV immunofluorescence in Control tumors from treated mice. Type of assay: in vivo, mouse. As to conditions: tissue sections of Control tumors from treated mice. The procedure:
Taxol treatment induces increased Mena protein expression in vitro and in vivo. As high level of Mena or Mena^INV expression correlated with low response to Taxo, we hypothesized that Taxol treatment might affect Mena expression. […]. After 72 h of treatment with the drug, the expression level of Mena was 70% higher than in vehicle-treated cells.
Immunohistochemistry for Examples 16-22. Tumors dissected from NOD/SCID mice were fixed in 10% buffered formalin and embedded in paraffin. Tissue sections (5 μm thick) were deparaffinized followed by antigen retrieval using Citra Plus solution (Biogenex). After treatment with 3% H2O2, sections were blocked with serum, incubated with primary antibodies overnight at 4° C. and fluorescently labeled secondary antibodies at room temperature for 2 hours. Sections were stained using anti-MENA (1:500), biotinylated anti-MENA^INV (1:500), anti-CC3 (1:200), anti-Ki67 (1:200) and DAPI. Fluorochromes on secondary antibodies included AlexaFluor 488, 594 or 647 (Jackson Immunoresearch). Sections were mounted in Fluoromount mounting media and imaged at room temperature. […]
Paclitaxel treatment selects for high MENA expression in vitro and in vivo. […] First, endogenous MENA expression by Western Blot in 5 breast cancer cell lines that were exposed to 100 nM of paclitaxel or a vehicle control were analyzed (FIG. 33A).

The values below come from patent US20170168056A1, “METHODS AND COMPOSITIONS FOR DETECTING AND MODULATING CANCER CELLS” (Massachusetts Institute of Technology, priority 2015, published 2017).

On to `CC(=O)O[C@H]1C(=O)[C@@]2(C)[C@H]([C@H](OC(=O)c3ccccc3)[C@]3(O)C[C@H](OC(=O)[C@H](O)[C@@H](NC(=O)c4ccccc4)c4ccccc4)C(C)=C1C3(C)C)[C@]1(OC(C)=O)CO[C@@H]1C[C@@H]2O` [paclitaxel], for which, in assay [1] (231-Control tumors), the “number of cells moving within tumors” value is listed as “significantly reduced”. In assay [1] (231-MENA and 231-MENA^INV tumors), the “motility of tumor cells in vivo” value was “not affected”. The “growth of control tumors compared to vehicle” value in assay [2] is “significantly decreased the growth of 231-Control tumors”; in assay [2] (listed as Taxol), “significantly decreased growth of control tumors”. Also, the “growth / response of Mena or Mena^INV tumors” value in assay [2] (Mena or Mena^INV expressing tumors) was “unaffected”. Besides, the “fraction of viable GFP-Mena or GFP-Mena^INV cells higher than fraction of viable GFP (Control) cells” value in the assay on MDA-MB-231 cells [3] is recorded as “at least 65%”. The “cell velocity in vitro” value in the assay on MDA-MB-231 cells [4] was “decreased velocity”. Further, the “decrease in the number of successful divisions” value in the assay with MDA-MB-231 cells [5] (231-Control cells, 10 nM paclitaxel) is on record as 40%. Further, the “increase in time spent in cell division” value with MDA-MB-231 cells [5] (231-Control cells) was “four-fold”; in the assay on MDA-MB-231 cells [5] (231-MENA and 231-MENA^INV cells), “two-fold”. Further, in the assay with MDA-MB-231 cells [5] (paclitaxel treated 231-MENA and 231-MENA^INV cells), the successful cell divisions result was “over 90%”. The MT length result with microtubules (MT) is “small but significant increase”. The “Mena and Mena^INV levels in Control tumors compared to vehicle” value with Mena, Mena^INV is “significant increases in total MENA levels”; in the assay with Mena, Mena^INV (listed as Taxol), “increase in expression of both global Mena levels and the Mena^INV isoform”.
